According to patent US7947727B2, “Compounds” (GlaxoGroupLimited, priority 2006, dated 2011):

Each molecule was assayed on NFκB activity (assay: Glucocorticoid Mediated Transrepression of NFκB Activity (A549 ELAM promoter alkaline phosphatase reporter)). Details: Human A549 lung epithelial cells, 3 ng/ml human recombinant TNFα, 16 hours, read-out: pEC50, transrepression of NFκB activity (converted).
Type: cell-based
From the text: Human A549 lung epithelial cells were engineered to contain a secreted placental alkaline phosphatase gene under the control of the distal region of the NFκB dependent ELAM promoter as previously described in Ray, K. P., Farrow, S., Daly, M., Talabot, F. and Searle, N. “Induction of the E-selectin promoter by interleukin 1 and tumour necrosis factor alpha, and inhibition by glucocorticoids” Biochemical Journal (1997) 328: 707-15.
Compounds were solvated and diluted in DMSO, and transferred directly into assay plates such that the final concentration of DMSO was 0.7%. Following the addition of cells (40K per well), plates were incubated for 1 hour prior to the addition of 3 ng/ml human recombinant TNFα. Following continued incubation for 16 hours, alkaline phosphatase activity was determined by measuring the change in optical density at 405 nm with time following the addition of 0.7 volumes of assay buffer (1 mg/ml p-nitrophenylphosphate dissolved in 1M diethanolamine, 0.28M NaCl, 0.5 mM MgCl2). Dose response curves were constructed from which EC50 values were estimated.

Row | EC50 [nM] | SMILES
1 | ≤ 10 | CCN(CC(O)(CNc1cccc2c1cnn2-c1ccc(F)cc1)C(F)(F)F)C(=O)c1ccccc1F (stereo not shown) [Example 7, N-Ethyl-2-fluoro-N-[3,3,3-trifluoro-2-({[1-(4-fluorophenyl)-1H-indazol-4-yl]amino}methyl)-2-hydroxypropyl]benzamide]
2 | ≤ 10 | CCN(CC(O)(CNc1cccc2c1cnn2-c1ccccc1)C(F)(F)F)C(=O)c1ccccc1F (single isomer, unassigned) [Example 3A, N-Ethyl-2-fluoro-N-(3,3,3-trifluoro-2-hydroxy-2-{[(1-phenyl-1H-indazol-4-yl)amino]methyl}propyl)benzamide]
3 | ≤ 10 | CCN(CC(O)(CNc1cccc2c1cnn2-c1ccc(F)cc1)C(F)(F)F)C(=O)c1ccccc1F (single isomer, unassigned) [Example 7A, N-Ethyl-2-fluoro-N-[3,3,3-trifluoro-2-({[1-(4-fluorophenyl)-1H-indazol-4-yl]amino}methyl)-2-hydroxypropyl]benzamide]
4 | ≤ 10 | CCN(CC(O)(CNc1cccc2c1cnn2-c1ccc(F)cc1)C(F)(F)F)C(=O)c1ccccc1C (single isomer, unassigned) [Example 6A, N-Ethyl-2-methyl-N-[3,3,3-trifluoro-2-({[1-(4-fluorophenyl)-1H-indazol-4-yl]amino}methyl)-2-hydroxypropyl]benzamide]
